Columns and labels:
[1] = tested on: RPMI-8402 cells; experiment: Proliferation assay (CellTiter-Glo, 9 days), RPMI-8402; type: cell-based, human; settings: 5 μM (Fig 6E) or 2 μM (Fig S4A)
Experimental: 2 × 10^3 cells per well were seeded in 5 replicates into 96-well plates and treated with 5 μM of the compound. Every 4 days, we added the compound with 5 μL of the 20* compound-containing mixture, reaching 1*concentration. Cell proliferation was evaluated by CellTiter-Glo assay (Promega).

[2] = target: T1, NSD2 (Homo sapiens, UniProt O96028); experiment: Pharmacodynamic assessment in 22RV1 xenograft model; type: in vivo, mice; parameters: from tissue; host or cells: 22RV1 subcutaneous xenograft tumours in CB17 SCID mice; settings: 5 consecutive days
T1 sequence (O96028 1-1365): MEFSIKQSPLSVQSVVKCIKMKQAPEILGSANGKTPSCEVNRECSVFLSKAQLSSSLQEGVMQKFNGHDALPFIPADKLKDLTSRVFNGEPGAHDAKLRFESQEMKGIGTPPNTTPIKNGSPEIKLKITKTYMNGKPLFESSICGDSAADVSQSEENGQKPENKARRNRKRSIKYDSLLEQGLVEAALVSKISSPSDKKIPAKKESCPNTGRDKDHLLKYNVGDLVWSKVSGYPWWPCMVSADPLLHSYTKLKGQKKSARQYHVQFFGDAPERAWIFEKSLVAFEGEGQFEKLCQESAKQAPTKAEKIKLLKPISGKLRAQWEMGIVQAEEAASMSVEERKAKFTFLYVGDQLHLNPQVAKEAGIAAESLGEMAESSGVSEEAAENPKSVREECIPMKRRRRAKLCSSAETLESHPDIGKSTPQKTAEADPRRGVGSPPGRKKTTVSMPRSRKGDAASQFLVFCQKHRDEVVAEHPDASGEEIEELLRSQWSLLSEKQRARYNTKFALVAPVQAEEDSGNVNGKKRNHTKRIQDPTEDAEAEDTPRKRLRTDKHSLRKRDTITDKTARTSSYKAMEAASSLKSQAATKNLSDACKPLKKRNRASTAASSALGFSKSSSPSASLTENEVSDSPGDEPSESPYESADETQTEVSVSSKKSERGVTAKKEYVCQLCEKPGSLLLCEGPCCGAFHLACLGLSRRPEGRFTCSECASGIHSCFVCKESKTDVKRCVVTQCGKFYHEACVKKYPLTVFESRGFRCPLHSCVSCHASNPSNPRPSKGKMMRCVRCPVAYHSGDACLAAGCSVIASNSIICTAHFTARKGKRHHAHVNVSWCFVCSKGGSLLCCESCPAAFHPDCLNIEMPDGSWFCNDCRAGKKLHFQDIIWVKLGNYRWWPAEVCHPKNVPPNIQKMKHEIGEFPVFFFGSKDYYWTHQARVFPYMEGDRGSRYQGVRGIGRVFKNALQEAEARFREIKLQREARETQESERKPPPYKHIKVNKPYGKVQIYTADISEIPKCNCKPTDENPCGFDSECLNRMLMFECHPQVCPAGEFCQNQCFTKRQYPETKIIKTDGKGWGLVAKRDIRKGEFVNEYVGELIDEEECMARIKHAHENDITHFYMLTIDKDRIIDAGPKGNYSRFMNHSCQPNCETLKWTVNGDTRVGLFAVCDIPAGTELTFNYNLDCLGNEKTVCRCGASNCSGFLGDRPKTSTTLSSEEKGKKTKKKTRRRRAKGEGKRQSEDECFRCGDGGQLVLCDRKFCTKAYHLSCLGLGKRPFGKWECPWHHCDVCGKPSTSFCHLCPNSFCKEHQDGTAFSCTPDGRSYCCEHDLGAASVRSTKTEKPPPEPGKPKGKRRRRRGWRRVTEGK
Experimental: We finally performed pharmacodynamic assessment of LLC0424 in both the SEM and 22RV1 xenograft model. Based on the solubility of LLC0424 and the tolerance of the mice, we chose 60 mg/kg as the dosage for the pharmacodynamic study. LLC0424 was administrated by intravenous (iv) or intraperitoneal (ip) injection at a dose of 60 mg/kg for 5 consecutive days. The tumor tissues were harvested at day 5 and subjected to histology and Western blot analysis (Figure 7A, and SI, Figure S6A).
First, 6–8 weeks old male CB17 severe combined immunodeficiency (SCID) mice were procured from the University of Michigan breeding colony. Subcutaneous tumors were established at both sides of the dorsal flank of mice. Tumors were measured at least biweekly using digital calipers following the formula (π/6) (L × W2), where L is length and W is width of the tumor. At the end of the studies, mice were sacrificed and tumors extracted. For each tumor, a part is […] followed by embedding in paraffin to make tissue blocks. The blocks were sectioned at […] for immunohistochemistry analysis. Another part is made into tissue lysates for Western blotting analysis. The University of Michigan Institutional Animal Care and Use Committee (IACUC) approved all in vivo studies. […]

O=C1CCC(N2C(=O)c3ccc(N4CCC(NC(=O)c5ccc(NC(=O)c6ccc(CN(C(=O)c7ccc8c(c7)OCC(=O)N8)C7CC7)cc6)cc5)CC4)cc3C2=O)C(=O)N1 (stereo not drawn) [compound 10l, N-Cyclopropyl-N-(4-((4-((1-(2-(2,6-dioxopiperidin-3-yl)-1,3-dioxoisoindolin-5-yl)piperidin-4-yl)carbamoyl)phenyl)carbamoyl)benzyl)-3-oxo-3,4-dihydro-2H-benzo[b][1,4]oxazine-7-carboxamide]
cell growth on treatment for 9 days [1]: significantly inhibited
NSD2 level in tumor tissue ([2]; 60 mg/kg iv or ip, versus vehicle): significantly downregulated
NSD2 degradation, iv versus ip administration ([2]; 60 mg/kg): comparable level of NSD2 degradation

From publication PMC11094793, “Discovery of LLC0424 as a Potent and Selective in Vivo NSD2 PROTAC Degrader” (Journal of Medicinal Chemistry, 2024)
